Assay results from the NIST ThermoML archive (doi:10.1016/j.jct.2017.08.028).
Numbers after ± are expanded uncertainties.

Details: Crystal; for molar entropy: 100 kPa, Small (less than 1 g) adiabatic calorimetry; for mass density: 101.33 kPa, X-ray diffraction

O[C@H]1[C@H](O)[C@@H](O)[C@H](O)[C@@H](O)[C@H]1O [cis-1,2,3,5-trans-4,6-cyclohexanehexol]
molar entropy (5 K): 0.0237 ± 0.024 J/K/mol
molar entropy (6 K): 0.0492 ± 0.024 J/K/mol
molar entropy (7 K): 0.091 ± 0.025 J/K/mol
molar entropy (8 K): 0.1546 ± 0.026 J/K/mol
molar entropy (9 K): 0.2451 ± 0.029 J/K/mol
molar entropy (10 K): 0.3742 ± 0.036 J/K/mol
molar entropy (15 K): 1.491 ± 0.1 J/K/mol
molar entropy (20 K): 3.261 ± 0.21 J/K/mol
molar entropy (25 K): 5.458 ± 0.34 J/K/mol
molar entropy (30 K): 7.964 ± 0.5 J/K/mol
molar entropy (35 K): 10.69 ± 0.66 J/K/mol
molar entropy (40 K): 13.58 ± 0.83 J/K/mol
molar entropy (45 K): 16.57 ± 0.32 J/K/mol
molar entropy (50 K): 19.63 ± 0.36 J/K/mol
molar entropy (60 K): 25.97 ± 0.46 J/K/mol
molar entropy (70 K): 32.56 ± 0.56 J/K/mol
molar entropy (80 K): 39.37 ± 0.67 J/K/mol
molar entropy (90 K): 46.36 ± 0.49 J/K/mol
molar entropy (100 K): 53.48 ± 0.54 J/K/mol
molar entropy (110 K): 60.72 ± 0.59 J/K/mol
molar entropy (120 K): 68.03 ± 0.65 J/K/mol
molar entropy (130 K): 75.4 ± 0.7 J/K/mol
molar entropy (140 K): 82.82 ± 0.75 J/K/mol
molar entropy (150 K): 90.26 ± 0.8 J/K/mol
mass density (150 K): 1577 ± 6 kg/m3
molar entropy (160 K): 97.71 ± 0.86 J/K/mol
molar entropy (170 K): 105.2 ± 0.9 J/K/mol
mass density (175 K): 1574 ± 6 kg/m3
molar entropy (180 K): 112.6 ± 1 J/K/mol
molar entropy (190 K): 120.1 ± 1 J/K/mol
molar entropy (200 K): 127.6 ± 1.1 J/K/mol
mass density (200 K): 1574 ± 6 kg/m3
molar entropy (210 K): 135 ± 1.1 J/K/mol
molar entropy (220 K): 142.4 ± 1.2 J/K/mol
mass density (225 K): 1575 ± 6 kg/m3
molar entropy (230 K): 149.9 ± 1.2 J/K/mol
molar entropy (240 K): 157.3 ± 1.3 J/K/mol
molar entropy (250 K): 164.8 ± 1.3 J/K/mol
mass density (250 K): 1572 ± 6 kg/m3
molar entropy (260 K): 172.2 ± 1.4 J/K/mol
molar entropy (270 K): 179.6 ± 1.5 J/K/mol
molar entropy (273.15 K): 182 ± 1.5 J/K/mol
mass density (275 K): 1570 ± 6 kg/m3
molar entropy (280 K): 187.1 ± 1.5 J/K/mol
molar entropy (290 K): 194.5 ± 1.6 J/K/mol
molar entropy (298.15 K): 200.6 ± 1.6 J/K/mol
molar entropy (300 K): 202 ± 1.6 J/K/mol
mass density (300 K): 1569 ± 6 kg/m3
molar entropy (310 K): 209.4 ± 1.7 J/K/mol
molar entropy (320 K): 216.9 ± 1.7 J/K/mol
mass density (325 K): 1569 ± 6 kg/m3
molar entropy (330 K): 224.3 ± 1.8 J/K/mol
molar entropy (340 K): 231.8 ± 1.8 J/K/mol
mass density (350 K): 1566 ± 6 kg/m3
mass density (375 K): 1561 ± 6 kg/m3
mass density (400 K): 1559 ± 6 kg/m3
mass density (425 K): 1555 ± 6 kg/m3
mass density (450 K): 1553 ± 6 kg/m3
